Measured values taken from PMC9925730, “Controlled sequential in situ self-assembly and disassembly of a fluorogenic cisplatin prodrug for cancer theranostics” (Nature Communications, 2023).
“And” between values parts separate entries of the source, which are not always exact repeats. Equal entries are not always repeated.

Tests used:
ALP = target: T1, ALP (Bos taurus, UniProt P19111); assay: ALP-triggered dephosphorylation and in situ self-assembly in solution (HPLC, DLS, TEM); format: biochemical; parameters: amount of compound in the P-CyPt solution (HPLC, Fig. 2h) / mean size by TEM (Fig. 2i) / mean size by DLS (Fig. 2i): unit not given here; conditions: for Pt release (ICP-OES, Fig. 2h) / amount of compound in the P-CyPt solution (HPLC, Fig. 2h) / mean size by DLS (Fig. 2i) / mean size by TEM (Fig. 2i): P-CyPt 10 μM, ALP 100 U/L 37 °C
T1 construct: Alkaline phosphatase from bovine; purchased Sigma-Aldrich; host or cells: bovine intestinal mucosa (tissue-derived)
T1 sequence (P19111 20-506 limits assumed): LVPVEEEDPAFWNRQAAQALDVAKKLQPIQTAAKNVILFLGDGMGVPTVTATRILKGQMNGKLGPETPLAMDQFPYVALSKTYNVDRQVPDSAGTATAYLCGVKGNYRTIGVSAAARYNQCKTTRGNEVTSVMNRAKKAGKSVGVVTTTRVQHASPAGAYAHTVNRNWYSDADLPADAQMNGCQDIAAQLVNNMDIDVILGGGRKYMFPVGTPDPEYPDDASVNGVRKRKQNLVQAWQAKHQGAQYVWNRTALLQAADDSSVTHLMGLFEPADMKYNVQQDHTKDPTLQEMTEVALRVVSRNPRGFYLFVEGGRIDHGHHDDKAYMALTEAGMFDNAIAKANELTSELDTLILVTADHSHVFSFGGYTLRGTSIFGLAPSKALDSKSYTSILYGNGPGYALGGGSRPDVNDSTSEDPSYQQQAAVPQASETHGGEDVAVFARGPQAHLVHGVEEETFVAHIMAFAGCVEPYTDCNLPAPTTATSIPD
Description: To evaluate the ALP-triggered dephosphorylation and in situ self-assembly process, a solution of P-CyPt (10 μM) in Tris buffer (1 mL) was incubated with ALP (100 U/L) at 37 °C. HPLC, DLS, and TEM analyses were performed at 0, 5, 10, 15, 20, and 30 min. To evaluate the GSH-triggered reduction and disassembly process, P-CyPt (10 μM) in Tris buffer (1 mL) was first incubated with ALP (100 U/L) at 37 °C for 30 min to allow the formation of Pt^IVNPs. The solution was then treated with 10 mM GSH at 37 °C, which was monitored by HPLC, DLS, and TEM at 10, 20, 30, 40, 50, and 60 min.

HeLa cells = assay: Flow cytometry analysis of HeLa cell death (Annexin V-FITC/PI); format: cell-based, human; conditions: 20 μM 2 h, then blank medium 48 h
Description: Flow cytometric analysis of HeLa cell death. (a) Gating strategy applied for flow cytometric analysis. (b) Representative flow cytometric analysis of HeLa cells by Annexin V-FITC/PI staining. HeLa cells were treated with PBS, CDDP, PtIVNPs or P-CyPt (20 μM) for 2 h, washed with cold PBS for three times, and then continued incubation in refresh blank DMEM medium for another 48 h. The cells were then stained with the Annexin V-FITC/PI kit, and analyzed by flow cytometry. One representative experiment out of two is shown.
Flow cytometry analysis of HeLa cell death. Approximately 2×10^5 cells/well HeLa cells in 2 mL DMEM medium were seeded onto 6-well plates and allowed to grow overnight. The medium was replaced with 1 mL of fresh medium containing P-CyPt (20 μM), PtIVNPs (20 μM) and CDDP (20 μM), respectively. After 2 h incubation, medium was removed and cells were washed with PBS for three times. Then, cells were incubated with fresh medium for another 48 h to induce different levels of apoptosis.
After gentle washing with PBS (×1), the cells were detached from the plates with trypsin (500 μL per well), and the cell pellets were collected after centrifugation at 1000 161× g at 4 °C for 4 min. […] All assays were performed according to the manufacturer instructions, and the cell population was analyzed by annexin V-FITC and PI channels. […]

[1] = system: supercoiled pBR322 plasmid DNA; assay: Ability to break DNA double strand (agarose gel electrophoresis); format: biochemical; conditions: 100 μM, 37 °C, 16 h
Description: Evaluation of the ability to break DNA double strand
by different species of Pt compounds. (a) Agarose gel electrophoresis of supercoiled
pBR322 plasmid DNA (10 ng/μL) after incubating with indicated conditions.
represents the linear DNA marker ladder (500-12000 bp); Lane i: DNA; Lane ii: DNA
+ GSH (2 mM); Lane iii: DNA + CDDP (100 μM); Lane iv: DNA + CDDP (100 μM)
+ GSH (2 mM); Lane v: DNA + P-CyPt (100 μM); Lane vi: DNA + P-CyPt (100 μM)
+ GSH (2 mM), Lane vii: DNA +P-CyPt (100 μM) + ALP (500 U/L), Lane viii: DNA
+P-CyPt (100 μM) + ALP (500 U/L) +GSH (2 mM); (b) Agarose gel electrophoresis
of supercoiled pBR322 plasmid DNA (20 ng/μL) after incubating with varying
concentrations of P-CyPt (0, 1, 2, 5, 10, 20, 50 and 100 μM) respectively) plus ALP
(500 U/L), followed by incubation with GSH (2 mM) in Tris buffer at 37 °C for 16 h.
One representative experiment out of two is shown.

[2] = system: orthotopic HepG2/Luc liver tumors; assay: Chemotherapy of orthotopic liver tumors (BL imaging, ex vivo BL and FL imaging); format: in vivo, mice;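 as to tumor BL intensity of liver: bioluminescence quantified by ROI over liver region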
Description: During the treatment, the body weights of mice were also measured every three days. On day 15, all mice were sacrificed, the whole liver were excised and photographed. Then, P-CyPt (10 μM) and D-luciferin (5 mM) were sprayed on the surface of each liver to performed ex vivo BL and NIR FL imaging. The BL images were acquired at 10 min using the BL imaging mode (Open), and the NIR FL images were acquired at 30 min, using a 660 nm excitation filter and a 750 ± 50 nm emission filter. The average BL and FL intensities were quantified by the ROIs measurement in the tumor region of liver using the Living Image Software (4.5.2, PerkinElmer, MA, U.S.A). Each experiment was conducted in four mice.

[3] = Urine and faeces analysis by HPLC (mCy-containing compounds); format: in vivo, mice; parameters: mCy in urine: unit not given beside the values; conditions: for percentage excreted to the faeces (HPLC) / percentage excreted to the urine (HPLC): after i.v. P-CyPt
[4] = Blood analysis in healthy mice (blood count, biochemistry); format: in vivo; parameters: BUN / CRE / WBC / HGB / HCT / MCH / MCHC / MCV / RBC / ALT / AST / TP / T-Bil / Alb: unit not given here; conditions: for ALT / AST / Alb / BUN / CRE / HCT / MCH / MCHC / MCV / PLT / RBC / T-Bil / TP / WBC: Supplementary Fig. 36
[5] = Body weight of mice with orthotopic HepG2/Luc liver tumors; format: in vivo; conditions: individual samples, in g (unit assumed)
[6] = as above; format: in vivo; conditions: mean of 3, in g (unit assumed)
[7] = Time period 0-2 h, individual mice, matrix and injected agent not given
[8] = Time period 0-2 h, mean of 3 mice, matrix and injected agent not given
[9] = Time period 2-4 h, individual mice
[10] = Time period 2-4 h, mean of 3 mice
[11] = Time period 4-8 h, individual mice
[12] = Time period 4-8 h, mean of 3 mice
[13] = Time period 8-12 h, mean of 3 mice

## CC1(C)C(/C=C/C2=C3Oc4cc(OP(=O)(O)O)c(Cl)cc4C=C3CCC2)=[N+](CCCNC(=O)[C@@H](Cc2ccccc2)NC(=O)[C@@H](Cc2ccccc2)NC(=O)CCC(=O)[O][Pt]([NH2])([NH2])([OH])([Cl])[Cl])c2ccccc21 [P-CyPt]
ALP; 100 U/L ALP, Tris buffer pH 8.0, after 30 min
  conversion of P-CyPt into CyPt on incubation with ALP (HPLC): completely converted into CyPt
ALP; 0 min
  Pt release (ICP-OES, Fig. 2h): 0%
  amount of compound in the P-CyPt solution (HPLC, Fig. 2h): 100.00
  mean size by DLS (Fig. 2i): 0.00
  mean size by TEM (Fig. 2i): 0.00
ALP; 5 min
  Pt release (ICP-OES, Fig. 2h): 0%
  amount of compound in the P-CyPt solution (HPLC, Fig. 2h): 72.64
  mean size by DLS (Fig. 2i): 45.78
  mean size by TEM (Fig. 2i): 54.14
ALP; 10 min
  Pt release (ICP-OES, Fig. 2h): 0%
  amount of compound in the P-CyPt solution (HPLC, Fig. 2h): 46.65
  mean size by DLS (Fig. 2i): 88.09
  mean size by TEM (Fig. 2i): 87.54
ALP; 15 min
  Pt release (ICP-OES, Fig. 2h): 0%
  amount of compound in the P-CyPt solution (HPLC, Fig. 2h): 28.27
  mean size by DLS (Fig. 2i): 112.94
  mean size by TEM (Fig. 2i): 105.56
ALP; 20 min
  Pt release (ICP-OES, Fig. 2h): 0%
  amount of compound in the P-CyPt solution (HPLC, Fig. 2h): 6.15
  mean size by DLS (Fig. 2i): 150.95
  mean size by TEM (Fig. 2i): 121.94
ALP; 30 min
  Pt release (ICP-OES, Fig. 2h): 0%
  amount of compound in the P-CyPt solution (HPLC, Fig. 2h): 1.54
  mean size by DLS (Fig. 2i): 162.05
  mean size by TEM (Fig. 2i): 152.65
HeLa cells
  apoptosis population: ~ 64.5%
[1]; plus GSH (2 mM)
  effect on supercoiled pBR322 DNA: can significantly relax the supercoiled DNA
[1]; without GSH
  effect on supercoiled pBR322 DNA: cannot bind to and break the DNA double strand
[2]; 2.25 mg kg^−1 Pt i.v. on day 0, 3, 6, 9, 12
  tumor BL over the course of treatment: did not obviously increase
[2]; day 15
  tumor BL intensity of liver: 9376.5
[2]; day 15, ex vivo BL imaging
  metastatic tumor foci in the livers: No metastatic tumor foci
[2]; day 15, livers sprayed with P-CyPt 10 μM, normalized to PBS group
  Normalized FL intensity of mCy (ex vivo liver tumor, Fig. 5h): 0.23
[2]; day 15, normalized to PBS group
  Normalized BL intensity (ex vivo liver tumor, Fig. 5h): 0.22
[3]; Fig.6e, 0-2 h, mean of 3 mice
  mCy in urine: 12.76
[3]; Fig.6e, 0-2 h, single mice
  mCy in urine: 12.5823 and 14.2325 and 11.4685
[3]; Fig.6e, 2-4 h, mean of 3 mice
  mCy in urine: 12.43
[3]; Fig.6e, 2-4 h, single mice
  mCy in urine: 12.5615 and 13.5939 and 11.1324
[3]; Fig.6e, 4-8 h, mean of 3 mice
  mCy in urine: 12.56
[3]; Fig.6e, 4-8 h, single mice
  mCy in urine: 12.5588 and 13.6118 and 11.5060
[3]; Fig.6e, 8-12 h, mean of 3 mice
  mCy in urine: 7.02
[3]; Fig.6e, 8-12 h, single mice
  mCy in urine: 7.0621 and 8.1416 and 5.8422
[3]; Fig.6f, 0-2 h, mean of 3 mice
  mCy in urine: 0.53
[3]; Fig.6f, 0-2 h, single mice
  mCy in urine: 0.4663 and 0.7332 and 0.3884
[3]; Fig.6f, 2-4 h, mean of 3 mice
  mCy in urine: 6.03
[3]; Fig.6f, 2-4 h, single mice
  mCy in urine: 6.1714 and 7.3564 and 4.5750
[3]; Fig.6f, 4-8 h, mean of 3 mice
  mCy in urine: 21.29
[3]; Fig.6f, 4-8 h, single mice
  mCy in urine: 22.9482 and 23.3466 and 17.5729
[3]; Fig.6f, 8-12 h, mean of 3 mice
  mCy in urine: 9.19
[3]; Fig.6f, 8-12 h, single mice
  mCy in urine: 7.4602 and 10.7840 and 9.3353
[3]; [7]
  Compound found in excreta (%), Supplementary Table S5: 11.1327% and 12.5928% and 10.1473%
  Compound found in excreta (%), Supplementary Table S6: 0.3965% and 0.6235% and 0.3303%
[3]; [8]
  Compound found in excreta (%), Supplementary Table S5: 11.29%
  Compound found in excreta (%), Supplementary Table S6: 0.45%
[3]; [9]
  Compound found in excreta (%), Supplementary Table S5: 5.17% and 5.5947% and 4.582%
  Compound found in excreta (%), Supplementary Table S6: 4.641% and 5.532% and 3.44%
[3]; [10]
  Compound found in excreta (%), Supplementary Table S5: 5.12%
  Compound found in excreta (%), Supplementary Table S6: 4.54%
[3]; [11]
  Compound found in excreta (%), Supplementary Table S5: 4.333% and 4.696% and 3.97%
  Compound found in excreta (%), Supplementary Table S6: 0.5705% and 0.5804% and 0.4369%
[3]; [12]
  Compound found in excreta (%), Supplementary Table S5: 4.33%
  Compound found in excreta (%), Supplementary Table S6: 0.53%
[3]; [13]
  Compound found in excreta (%), Supplementary Table S5: 1.41%
  Compound found in excreta (%), Supplementary Table S6: 0.06%
[3]; 2-4 h
  percentage excreted to the faeces (HPLC): 4.54± 1.05% and ~ 4.5%
  percentage excreted to the urine (HPLC): 5.12 ± 0.51%
[3]; 4-8 h
  percentage excreted to the faeces (HPLC): 0.53 ± 0.080%
  percentage excreted to the urine (HPLC): 4.33 ± 0.055%
[3]; 8-12 h
  percentage excreted to the faeces (HPLC): 0.059 ± 0.011%
  percentage excreted to the urine (HPLC): 1.41 ± 0.23%
[3]; over 12 h, of injected dose
  mCy-containing compounds excreted via hepatobiliary system: ~ 37.0%
  mCy-containing compounds excreted via renal system: ~ 44.8%
[4]; Supplementary Fig. 36, first HGB block, individual mice
  HGB: 124 and 128 and 97
[4]; Supplementary Fig. 36, first HGB block, mean of 3 mice
  HGB: 116.333
[4]; Supplementary Fig. 36, second HGB block (between AST and TP), mean of 3 mice
  HGB: 3.426
[4]; individual mice
  ALT: 64.638 and 69.471 and 57.14
  AST: 93.668 and 95.637 and 124.668
  Alb: 28.06 and 34.76 and 32.73
  BUN: 22.456 and 18.592 and 16.632
  CRE: 23.568 and 18.005 and 14.662
  HCT: 42 and 36 and 35.3
  MCH: 18.3 and 18.9 and 16.6
  MCHC: 315 and 345 and 304
  MCV: 50.3 and 49.6 and 53.5
  PLT: 463 and 494 and 673
  RBC: 7.22 and 7.49 and 6.74
  T-Bil: 20.416 and 17.788 and 25.91
  TP: 41.72 and 48.65 and 44.25
  WBC: 2.3 and 2.6 and 1.5
[4]; mean of 3 mice
  ALT: 63.750
  AST: 104.658
  Alb: 31.850
  BUN: 19.227
  CRE: 18.745
  HCT: 37.767
  MCH: 17.933
  MCHC: 321.333
  MCV: 51.133
  PLT: 543.333
  RBC: 7.150
  T-Bil: 21.371
  TP: 44.873
  WBC: 2.133
[4]; healthy nude mice, 1 day post i.v. 2.25 mg kg-1 Pt
  blood count and biochemistry values: all the values were within the normal reference
[5]; time 0 d
  Body weight of mice (Supplementary Fig. 34): 18.59 and 19.8 and 19.81
[5]; time 3 d
  Body weight of mice (Supplementary Fig. 34): 18.83 and 19.54 and 20.74
[5]; time 6 d
  Body weight of mice (Supplementary Fig. 34): 17.51 and 20.1 and 20.66
[5]; time 9 d
  Body weight of mice (Supplementary Fig. 34): 18.1 and 20.43 and 20.94
[5]; time 12 d
  Body weight of mice (Supplementary Fig. 34): 19.14 and 19.19 and 21.74
[5]; time 15 d
  Body weight of mice (Supplementary Fig. 34): 19.31 and 19.45 and 21.01
[6]; time 0 d
  Body weight of mice (Supplementary Fig. 34): 19.4
[6]; time 3 d
  Body weight of mice (Supplementary Fig. 34): 19.7033
[6]; time 6 d
  Body weight of mice (Supplementary Fig. 34): 19.4233
[6]; time 9 d
  Body weight of mice (Supplementary Fig. 34): 19.8233
[6]; time 12 d
  Body weight of mice (Supplementary Fig. 34): 20.0233
[6]; time 15 d
  Body weight of mice (Supplementary Fig. 34): 19.9233
